Like-named read-outs stand apart in the source and are kept apart here.
Legend:
[1] = molecular target: T1, human sGC α subunit and β subunit (Homo sapiens, UniProt Q02153); assay: Maximum effect of sGC activating function (Ca2+ fluorescence in CHO-K1 cells expressing human sGC and mouse CNGA2); type: cell-based; settings: increase ratio of sGC activity vs control solution at 10 μmol/L test compound
T1 construct: expressed in transfected cells
T1 sequence (Q02153 1-619): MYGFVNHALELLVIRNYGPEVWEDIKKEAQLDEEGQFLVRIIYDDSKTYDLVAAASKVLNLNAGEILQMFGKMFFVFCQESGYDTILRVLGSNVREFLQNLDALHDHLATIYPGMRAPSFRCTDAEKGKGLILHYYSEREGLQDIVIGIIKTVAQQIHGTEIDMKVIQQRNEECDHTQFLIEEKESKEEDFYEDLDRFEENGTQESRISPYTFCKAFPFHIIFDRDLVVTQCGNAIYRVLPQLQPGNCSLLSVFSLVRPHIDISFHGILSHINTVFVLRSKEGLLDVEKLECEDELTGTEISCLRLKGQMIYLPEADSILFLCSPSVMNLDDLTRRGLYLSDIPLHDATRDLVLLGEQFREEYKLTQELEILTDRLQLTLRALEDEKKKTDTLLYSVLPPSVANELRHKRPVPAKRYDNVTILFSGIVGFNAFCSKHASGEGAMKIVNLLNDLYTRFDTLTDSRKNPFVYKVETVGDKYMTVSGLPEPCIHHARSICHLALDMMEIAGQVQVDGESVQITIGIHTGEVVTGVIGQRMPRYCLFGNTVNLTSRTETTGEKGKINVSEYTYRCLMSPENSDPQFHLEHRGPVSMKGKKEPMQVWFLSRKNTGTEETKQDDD
T1 sequence (Q02108 1-690 partner): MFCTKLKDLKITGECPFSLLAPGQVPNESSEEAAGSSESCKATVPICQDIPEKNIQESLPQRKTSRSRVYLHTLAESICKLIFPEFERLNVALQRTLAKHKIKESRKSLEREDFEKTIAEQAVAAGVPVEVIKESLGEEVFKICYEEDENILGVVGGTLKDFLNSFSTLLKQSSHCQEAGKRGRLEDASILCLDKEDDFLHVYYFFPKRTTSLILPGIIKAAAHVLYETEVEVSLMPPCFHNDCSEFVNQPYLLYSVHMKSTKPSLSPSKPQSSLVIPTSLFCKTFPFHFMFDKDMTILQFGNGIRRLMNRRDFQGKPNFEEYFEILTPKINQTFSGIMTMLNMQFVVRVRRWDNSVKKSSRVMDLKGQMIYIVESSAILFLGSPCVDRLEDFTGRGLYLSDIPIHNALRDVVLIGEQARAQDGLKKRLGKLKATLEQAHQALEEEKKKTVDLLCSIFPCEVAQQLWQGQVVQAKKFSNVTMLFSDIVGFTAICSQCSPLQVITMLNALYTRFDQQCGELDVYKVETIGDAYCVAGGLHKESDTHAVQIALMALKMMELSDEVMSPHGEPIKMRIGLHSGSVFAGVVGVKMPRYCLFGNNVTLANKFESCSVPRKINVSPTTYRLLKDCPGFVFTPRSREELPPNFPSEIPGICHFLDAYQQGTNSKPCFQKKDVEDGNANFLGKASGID
Experimental: For the assay, Chinese hamster ovary cells (CHO-K1 cells) in which human sGC α subunit and β subunit and mouse cyclic nucleotide gated channel (CNGA2) are stably expressed were used.
CHO-K1 cells in which human sGC and mouse CNGA2 are stably expressed were cultured at 37° C. in F-12 medium containing 10% (v/v) fetal bovine serum (FBS), penicillin (100 U/mL), streptomycin (100 μg/mL), G418 (250 μg/mL), and zeocin (250 μg/mL). The cells were suspended in the culture medium and seeded onto a 96-well plate, and then cultured at 37° C. for 24 hours. After washing with assay buffer 1 (140 mmol/L sodium chloride, 5 mmol/L potassium chloride, 0.5 mmol/L magnesium chloride, 0.01 mmol/L calcium chloride, 10 mmol/L glucose, 0.4 mmol/L magnesium sulfate, 10 mmol/L 4-(2-hydroxyethyl)piperazin-1-ylethane sulfonic acid, and 125 μmol/L sulfinpyrazone, pH 7.4), an indicator solution in which FURA2-AM as a fluorescent Ca^2+ indicator is dissolved at concentration of 5 μmol/L in assay buffer 1 was added followed by culture for 60 minutes at 37° C. The indicator solution was removed. After washing with assay buffer 1, the test compound solution was added and incubated for 10 minutes at room temperature. The plate was placed in a fluorometer (Flex Station II, Molecular Devices, LLC), and then the intracellular calcium concentration was measured as fluorescence intensity ratio which is obtained from each excitation wavelength (excitation wavelength of 340 nm and 380 nm and detection wavelength of 510 nm).
The test compound solution was prepared by dissolving each of the test compounds in DMSO to a concentration of 10 mmol/L, and then adding the assay buffer 2 (140 mmol/L sodium chloride, 5 mmol/L potassium chloride, 0.5 mmol/L magnesium chloride, 1 mmol/L calcium chloride, 10 mmol/L glucose, 0.4 mmol/L magnesium sulfate, 10 mmol/L 4-(2-hydroxyethyl)piperazin-1-ylethane sulfonic acid, 125 μmol/L sulfinpyrazone, 100 μmol/L isobutylmethylxanthine, 10 μmol/L 1H-[1,2,4]-oxadiazole[4,3-a]quinoxalin-1-one (hereinbelow, ODQ), pH 7.4) for dilution to have test concentration of 10 μmol/L. For the evaluation of a case in which ODQ is not contained, the same evaluation was performed except that ODQ is excluded from assay buffer 2. As a control solution, a DMSO solution was used instead of the test compound solution.
The activity of the test compound corresponds to the increase ratio (%) of the sGC activity at the time of adding the test compound solution with respect to the sGC activity at the time of adding the control solution, and it was calculated by dividing the fluorescence intensity ratio at the time of adding the test compound by the fluorescence intensity ratio of the control solution and subtracting the sGC activity (100%) at the time of adding the control solution.
In this assay, intracellular cGMP concentration increases as sGC is activated, and according to opening of CNGA2 following the increase of cGMP, intracellular Ca^2+ concentration increases. Thus, SGC activation can be measured by following the change in intracellular Ca^2+ concentration. […] Thus, in the absence of ODQ, the maximum sGC activating function including the heme-dependent activation can be evaluated while the heme-independent sGC activating function can be evaluated in the presence of ODQ.

[2] = test system: abdominal aorta ring specimen; assay: Evaluation of blood vessel relaxing function (phenylephrine-contracted abdominal aorta ring); settings: relaxation of rat abdominal aorta contracted with 1 μmol/L phenylephrine; without vs with 10 μmol/L ODQ
Experimental: The representative compounds of the present invention were evaluated by blood vessel relaxing function according to the following Test Example. In the assay, bleeding from the upper part of a heart of a rat (male, SD) was performed under anesthesia with pentobarbital (30 mg/kg) and then abdominal aorta was extracted. The connecting tissue adhered around blood vessel was removed from the abdominal aorta in an ice-cooled Krebs-Henseleit solution (KH solution) (118 mmol/L sodium chloride, 4.7 mmol/L potassium chloride, 1.2 mmol/L magnesium sulfate, 1.2 mmol/L potassium dihydrogen phosphate, 25 mmol/L sodium hydrogen carbonate, 2.5 mmol/L calcium chloride, and 10 mmol/L glucose, pH 7.4). After that, a ring specimen with length of 2 mm was prepared and fixed in 5 mL organ bath filled with a KH solution. The KH solution was kept at 37° C. and aerated with a mixture gas of 95% O2 and 5% CO2. The specimen was stabilized for 1 hour with static tension of 1 g. The KH solution was exchanged twice during that time. The tension on the specimen was recorded on a multi-channel recorder via pickup and amplifier. After the stabilization of the specimen, contraction was caused by using 1 μmol/L phenylephrine (Phe), and cumulative administration of each compound (0.001, 0.01, 0.03, 0.1, 0.3, 1, 3, 10, 30, 100, 1000, 10000 nmol/L) was performed. For the evaluation of a case in which 1H-1,2,4-oxadiazole-(4,3a)-quinoxalin-1-one (ODQ) is contained, 10 μmol/L ODQ was added 10 minutes before the Phe addition, and the same evaluation as above was performed.
EC50 value was calculated using four-parameter logistics model using Assay Explorer (Accelrys). The test compound solution was dissolved in DMSO such that the concentration of each test compound is 1000 times the final concentration.

- Emax at 10 µM ([1]; ODQ not contained, read-out: Emax (%) ODQ− (Heme-dependent)): 81.3%
- Emax at 10 µM ([1]; with 10 μmol/L ODQ, read-out: Emax (%) ODQ+ (Heme-independent)): 123%
- EC50 Ratio (ODQ−/ODQ+) [2]: 5.2
SMILES: O=C(O)CCCCN(CCc1ccccc1OCc1ccc2c(c1)CCC2)C1CCCc2cc(C(=O)O)ccc21 (stereo not drawn) [Example 46, 5-{N-(4-Carboxybutyl)-N-[2-[2-(indane-5-ylmethoxy)phenyl]ethyl]amino}-5,6,7,8-tetrahydronaphthalene-2-carboxylic acid]

From patent US9290440B2, “Bicyclic compound” (TOA EIYO LTD., priority 2012, dated 2016)
